Reference: EP4759821A1, “CITRULLINATED SETDB1 POLYPEPTIDE AND USE THEREOF IN DIAGNOSIS OF RHEUMATOID ARTHRITIS” (Xiamen University, priority 2023, dated 2025)
Non-standard residues stand in square brackets, D forms with d. No end group written: not given here. Cit = NC(=O)NCCC[C@H](N)C(=O)O

System: autoantibodies against cit-4 (anti-citrullinated SETDB1 antibody)
Assay: indirect ELISA of autoantibodies against biotin-conjugated citrullinated short polypeptides in serum
Assay type: binding, human
Description: The autoantibody expression levels of the citrulline markers were detected using an indirect ELISA method. In short, biotin-conjugated short polypeptides were first coated onto PABC plates at a concentration of 50 ng/well. After coating, serum from 24 rheumatoid arthritis (RA) patients and 24 healthy subjects (HC) were diluted 10-fold as primary antibodies and incubated for 30 minutes. HRP-labeled goat anti-human IgG (GAH-HRP) was used as secondary antibody, incubation was performed for 30 minutes, and color development and reading were finally carried out.
The expression level of citrulline marker autoantibodies in patients with rheumatoid arthritis was detected using an indirect ELISA method (see Example 1 for details). In addition, anti-citrullinated peptide antibody (CCP2) was used as a control. […]
The cit-4 antibody level was detected in a CCP2-negative patient population using an indirect ELISA method (see Example 1 for details).
The levels of citrullinated SETDB1 autoantibodies in the serum of patients with different autoimmune diseases (RA rheumatoid arthritis, SLE systemic lupus erythematosus, PSS primary Sjögren's syndrome, and SSc scleroderma) were detected using an indirect ELISA method (see Example 1 for details). […]

NPLLVPLLYDFXXMTAXXXVNXK (NPLLVPLLYDF[Cit][Cit]MTA[Cit][Cit][Cit]VN[Cit]K; also: conjugated with biotin) [cit-4]
level of autoantibodies in rheumatoid arthritis (Example 1, Fig. 1A, serum of 24 RA patients vs 24 healthy subjects (HC), diluted 10-fold, peptide coated 50 ng/well, GAH-HRP secondary antibody): significantly elevated
level of citrullinated SETDB1 autoantibodies (Example 4, Fig. 4A, serum of patients with different autoimmune diseases (RA, SLE, PSS, SSc)): the highest in rheumatoid arthritis
